Assay [1] deals with Wee1 kinase (Homo sapiens, UniProt P30291). The experiment in a line: WEE1 protein kinase inhibitory activity assay (ADP-GLO luminescence). The class given is biochemical. The settings on record: for IC50: Wee1 10 ng/well, ATP 10 µM, 3 h, 37 °C; for inhibition of the Weel target (in words): summary statement on the assay results. How it is done:
The influence of the compound MRANK-106 of the present disclosure on the kinase activity of Weel was assessed using an in vitro kinase reaction system.
Table 2-1. Information about reagents and consumables
① 1× kinase buffer: A 5× kinase buffer was diluted with ddH2O to make a 1× kinase buffer. Table 2-3. The reagent components added to the 1× kinase buffer
③ 5× enzyme working solution: The optimization of the enzyme concentration had been completed in previous work, and the concentration of the reagent used in the screening is shown in Table 2-4. A 5× enzyme working solution of the enzyme was formulated using the 1× kinase buffer.
④ Compound formulation: A 10 mM mother liquor was formulated using DMSO, aliquoted, and then stored at -20 °C. Immediately before use, the mother liquor was thawed, diluted with DMSO to 1 mM, serially diluted 4-fold to 10 concentration points, and then 40-fold diluted with the 1× kinase buffer to give a 2.5× working solution. Table 2-4. The experimental conditions for the kinase activity assay
After the above reagents were formulated and equilibrated to room temperature, 4 µL of the diluted solution of the compound to be tested and 2 µL of the formulated enzyme solution were added to reaction wells. After shaking and centrifugation, the plate was incubated at room temperature for 15 min, and 4 µL of the ATP solution was then added to start a kinase reaction. After 3 h of reaction at 37 °C, 10 µL of an ADP-GLO reagent was added. After thorough mixing, the mixture was left to react at room temperature for 40 min, and 20 µL of a detection reagent was then added. After 30 min of reaction at room temperature, the luminescence signals were detected using a SpectraMax L instrument. Two independent duplicate assays were performed. The inhibition rate of each well was calculated based on all activity wells and background signal wells, with an average calculated for duplicate wells. Meanwhile, the inhibition rate was plotted using the professional graphing and analysis software PRISM 9.0, and the IC50 was calculated.
The inhibition rates of the compounds to be tested against the kinase activity of Wee1 were calculated using the following formula: Inhibition rate% = (Lumvehicle−Lumcompound)/(Lumvehicle−Lumblank) × 100% [formula] • Lumcompound: the luminescence of the sample treatment groups • Lumvehicle: the luminescence of the solvent control group • Lumblank: the luminescence of the blank group
In general terms: ADP-Glo first removes unused ATP, then detects ADP through luciferase.

In assay [2] the target is YES1 kinase (Homo sapiens, UniProt P07947). The experiment in a line: YES1 protein kinase inhibitory activity assay (HTRF). The class given is biochemical. The settings on record: for IC50: HTRF, YES1 kinase, ATP 10 µM; for inhibition of the Yes target (in words): summary statement on the assay results. How it is done:
In this experiment, the capability of the compound MRANK-106 of the present disclosure to inhibit kinase activity was assessed by an HTRF method using a drug screening system based on the YES1 kinase.
Table 3-1. Information about reagents and consumables
The enzymatic activity conditions and HTRF system formulation are shown in Table 3-3; the experimental conditions for the kinase activity assay are shown in Table 3-4. Table 3-3. HTRF system formulation
Table 3-4. The experimental conditions for the kinase activity assay
The test compound MRANK-106 was dissolved in DMSO, and the solution was vortexed and shaken for thorough mixing. The solution was serially diluted 3-fold with DMSO, with the initial concentration being 503 nM.
① A 2× ATP/substrate solution and a 2× kinase solution were formulated using a kinase reaction buffer.
② 50 nL of the compound dilution was transferred to a 384 detection plate using Echo 655. After centrifugation, 2.5 µL of a 2× kinase solution was added to the 384 detection plate. The plate was centrifuged at 1000 rpm for 1 min and incubated at 25 °C for 10 min.
② 2.5 µL of the 2× substrate and ATP solution was added to the 384 detection plate, and the plate was centrifuged at 1000 rpm for 1 min and incubated at 25 °C for 60 min.
④ A 2× XL665 and antibody detection reagent was formulated using a detection buffer.
⑤ 5 µL of a kinase detection reagent was added to the detection plate, and the plate was incubated at 25 °C. The plate was centrifuged at 1000 rpm for 1 min and incubated at 25 °C for 1 h.
⑥ The fluorescence signals at 620 nm (Cryptate) and 665 nm (XL665) were read using a BMG high-throughput drug-screening multi-mode microplate reader.
With the reading of the negative control set as an inhibition rate of 0% and the reading of the positive control set as an inhibition rate of 100%, the inhibition rate of each test solution was calculated using the following formula: [formula] • Datapositive control: the average of the positive control well values • Datanegative control : the average of the negative control well values
The IC50 (half maximal inhibitory concentration) of the compound was obtained using the following nonlinear fitting formulas: Y = Bottom + (Top−Bottom)/(1+10^(∧)((LogIC50−X)*HillSlope)) [formula] • X: the log value of the compound concentration • Y: the inhibition rate (% inh) of the compound
The Z' factor calculation equation: Z′ = 1−3(SDmin+SDmax)/(AVEmax−AVEmin) [formula] where: • Min is the positive control Data value, and Max is the negative control DMSO Data value; • SD stands for standard deviation, and AVE stands for average.
For orientation: TR-FRET usually uses a lanthanide donor and a delayed reading to cut background.

Assay [3] has as its system A427 cells. In words: Tumor cell proliferation inhibitory activity assay (CCK-8). The class given is cell-based, Human. The settings on record: for IC50: CCK-8; for activity in inhibiting cancer cell proliferation compared with reference compound Debio 0123 or ZN-c3: comparison in words. How it is done:
Human lung cancer A427 cells are cancer cells reported to be sensitive to wee1 inhibitors. In this assay, the anti-cancer effects of the compounds of the present disclosure were verified by assessing the activity of the test substances in inhibiting A427 cell proliferation.
A427 cells were cultured according to the cell culture instructions, and cells in the logarithmic growth phase were collected, counted, resuspended in a complete culture medium, and inoculated into a 96-well plate at a cell concentration of 100 µL/3000 cells/well. The cells were incubated in an incubator at 37 °C with 100% relative humidity and 5% CO2 for 24 h.
The compounds to be tested were dissolved in DMSO and diluted 4-fold with a culture medium from 10 µM to 10 concentration gradients.
The culture medium waste was pipetted off, and 100 µL of the formulated culture medium of the compound to be tested was added to each well. The cells were incubated in an incubator at 37 °C with 100% relative humidity and 5% CO2 for 72 h.
The plate was taken out, the CCK-8 reagent was added at 10 µL/well, and the plate was incubated in an incubator at 37 °C for 2-4 h.
The cell growth inhibition rates of the drugs were calculated using the following formula: Cell growth inhibition rate% = [(Ac−As)/(Ac−Ab)] × 100% [formula] • As: the OA of the samples (cells + CCK-8 + compounds to be tested) • Ac: the OA of the normal growth cell control (cells + CCK-8) • Ab: the OA of the blank control (culture medium + CCK-8)
IC50 curve fitting was performed using the software Graphpad Prism 6 and the calculation formula XY-analysis/Nonlinear regression(curve fit)/Dose response-Inhibition/log(inhibitor)vs. response-Variable slope(four parameters), and the IC50 values were calculated. Table 1. Data analysis and results for some representative compounds

[4] abbreviates: Homo sapiens, A-427, 72 h compound incubation.

Results on 10 compounds are retold here after patent publication EP4711366A1, “PYRIMIDO MACROHETEROCYCLIC COMPOUND AS WEE1-YES DUAL-TARGET INHIBITOR AND USE THEREOF” (Mindrank AI Ltd., priority 2023, dated 2024).

Sequence of Wee1 kinase (P30291 whole entry): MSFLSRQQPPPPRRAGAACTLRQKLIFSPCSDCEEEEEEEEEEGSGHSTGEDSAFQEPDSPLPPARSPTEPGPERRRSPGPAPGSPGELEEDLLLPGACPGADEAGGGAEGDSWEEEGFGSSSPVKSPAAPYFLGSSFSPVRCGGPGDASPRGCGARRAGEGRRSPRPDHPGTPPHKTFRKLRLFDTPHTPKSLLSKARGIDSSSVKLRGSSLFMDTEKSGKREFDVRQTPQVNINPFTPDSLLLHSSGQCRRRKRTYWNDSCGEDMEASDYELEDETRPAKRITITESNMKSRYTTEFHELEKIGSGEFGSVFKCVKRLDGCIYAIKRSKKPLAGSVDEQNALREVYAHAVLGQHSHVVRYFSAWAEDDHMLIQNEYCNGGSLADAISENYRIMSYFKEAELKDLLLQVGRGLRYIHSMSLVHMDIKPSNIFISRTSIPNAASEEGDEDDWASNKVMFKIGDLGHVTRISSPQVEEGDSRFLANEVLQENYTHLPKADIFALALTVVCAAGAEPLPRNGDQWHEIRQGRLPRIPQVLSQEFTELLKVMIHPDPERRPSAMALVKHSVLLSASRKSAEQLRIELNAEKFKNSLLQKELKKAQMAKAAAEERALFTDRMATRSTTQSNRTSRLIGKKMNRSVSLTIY
Sequence of YES1 kinase (P07947 whole entry): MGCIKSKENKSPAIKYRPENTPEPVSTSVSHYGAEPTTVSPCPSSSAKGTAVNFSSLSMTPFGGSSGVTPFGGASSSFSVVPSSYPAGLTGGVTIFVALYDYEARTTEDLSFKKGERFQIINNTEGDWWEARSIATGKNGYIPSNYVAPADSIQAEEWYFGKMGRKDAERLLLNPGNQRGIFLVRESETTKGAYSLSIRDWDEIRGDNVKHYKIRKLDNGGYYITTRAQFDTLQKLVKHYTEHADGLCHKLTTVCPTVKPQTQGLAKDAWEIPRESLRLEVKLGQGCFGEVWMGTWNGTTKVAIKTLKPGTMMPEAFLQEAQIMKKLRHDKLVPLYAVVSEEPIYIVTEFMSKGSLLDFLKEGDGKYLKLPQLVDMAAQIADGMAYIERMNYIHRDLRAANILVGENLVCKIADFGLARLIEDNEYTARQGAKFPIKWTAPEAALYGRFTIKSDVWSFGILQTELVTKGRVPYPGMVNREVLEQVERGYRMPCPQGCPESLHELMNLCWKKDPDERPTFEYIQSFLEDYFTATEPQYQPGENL

For orientation: IC50 means the midpoint of a concentration-inhibition curve. Low readings indicate greater potency, high ones weaker potency. As to `CCOP1(=O)CCN(c2ccc(Nc3ncc4c(=O)n5n(c4n3)-c3cccc(n3)C(C)(O)CCC=CC5)cc2C)CC1` (racemic) [Compound 182, (Z)-2-((4-(4-ethoxy-4-oxido-1,4-azaphosphinan-1-yl)-3-methylphenyl)amino)-12-hydroxy-12-methyl-7,10,11,12-tetrahydro-5H-13,17-(azeno)pyrimido[4',5':3,4]pyrazolo[1,2-a][1,2]diazacyclotridecin-5-one], in assay [1], 30.1 nM corresponded to half-maximal inhibition (IC50) and the “inhibition of the Weel target (in words)” value was “strongly inhibited”. In assay [2], the 50% inhibitory concentration (IC50) stood at 19.9 nM and the “inhibition of the Yes target (in words)” value is “strongly inhibited”. Further, half-maximal inhibition in assay [3] (setting [4]) (IC50) was put at 160 nM.
As for `[2H]C1(Oc2ccc(Nc3ncc4c(=O)n5n(c4n3)-c3cccc(n3)[C@](C)(O)CCC=CC5)cc2C)CCN(C)CC1` (single isomer, unassigned) [Compound 172A], in assay [1], the IC50 stood at 6.5 nM and the “inhibition of the Weel target (in words)” value is given as “strongly inhibited”. In assay [2], the midpoint of inhibition, the IC50, lay at 5.8 nM and the “inhibition of the Yes target (in words)” value was “strongly inhibited”. In assay [3] (setting [4]), this compound yielded an IC50 of 15 nM. Also, in assay [3], the “activity in inhibiting cancer cell proliferation compared with reference compound Debio 0123 or ZN-c3” value is “several times to several dozen times higher”.
Regarding `Cc1cc(Nc2ncc3c(=O)n4n(c3n2)-c2cccc(n2)C(C)(O)CC/C=C\C4)ccc1NC1CCN(C)CC1` (single isomer, unassigned) [Compound 203A], the concentration for half-maximal inhibition (IC50) in assay [1] worked out at 13.2 nM; in assay [3] (setting [4]), 71 nM. For the same compound, in assay [3], the “activity in inhibiting cancer cell proliferation compared with reference compound Debio 0123 or ZN-c3” value is on record as “several times to several dozen times higher”.
In the case of `Cc1cc(Nc2ncc3c(=O)n4n(c3n2)-c2cccc(n2)[C@](C)(O)CCCCC4)ccc1OC1CCN(C)CC1` [Compound 28, (R)-12-hydroxy-12-methyl-2-((3-methyl-4-((1-methylpiperidin-4-yl)oxy)phenyl)amino)-7,8,9,10,11,12-hexahydro-5H-13,17-(azeno)pyrimido[4',5':3,4]pyrazolo[1,2-a][1,2]diazacyclotridecin-5-one], in assay [3] (setting [4]), the IC50 was determined as 152 nM.
`Cc1cc(Nc2ncc3c(=O)n4n(c3n2)-c2cccc(n2)C(C)(O)CCC=CC4)ccc1OC1(C)CCN(C)CC1` (stereo not shown) [Compound 89, (Z)-2-((4-((1,4-dimethylpiperidin-4-yl)oxy)-3-methylphenyl)amino)-12-hydroxy-12-methyl-7,10,11,12-tetrahydro-5H-13,17-(azeno)pyrimido[4',5':3,4]pyrazolo[1,2-a][1,2]diazacyclotridecin-5-one]: in assay [1], the concentration for half-maximal inhibition (IC50) came out at 66.8 nM and the “inhibition of the Weel target (in words)” value is listed as “strongly inhibited”. In addition, in assay [2], the midpoint of inhibition, the IC50, lay at 18.5 nM and the “inhibition of the Yes target (in words)” value is “strongly inhibited”. Besides, the IC50 in assay [3] (setting [4]) worked out at 219 nM.
`COc1cc(Nc2ncc3c(=O)n4n(c3n2)-c2cccc(n2)[C@](C)(O)CCC=CC4)ccc1OC1CCN(C)CC1` [Compound 143, (R,Z)-12-hydroxy-2-((3-methoxy-4-((1-methylpiperidin-4-yl)oxy)phenyl)amino)-12-methyl-7,10,11,12-tetrahydro-5H-13,17-(azeno)pyrimido[4',5':3,4]pyrazolo[1,2-a][1,2]diazacyclotridecin-5-one] gave a half-inhibitory concentration (IC50) in assay [3] (setting [4]) of 65 nM. Besides, in assay [3], the “activity in inhibiting cancer cell proliferation compared with reference compound Debio 0123 or ZN-c3” value is “several times to several dozen times higher”.
With `Cc1cc(Nc2ncc3c(=O)n4n(c3n2)-c2cccc(n2)C(C)(O)CCC=CC4)ccc1OC1CN(C)[C@H]1C` (stereo partly drawn) [Compound 202, (Z)-2-((4-(((2S)-1,2-dimethylazetidin-3-yl)oxy)-3-methylphenyl)amino)-12-hydroxy-12-methyl-7,10,11,12-tetrahydro-5H-13,17-(azeno)pyrimido[4',5':3,4]pyrazolo[1,2-a][1,2]diazacyclotridecin-5-one], in assay [1], half-maximal inhibition (IC50) was put at 16.4 nM and the “inhibition of the Weel target (in words)” value is given as “strongly inhibited”. For the same compound, in assay [2], half-maximal inhibition (IC50) required 18.8 nM and the “inhibition of the Yes target (in words)” value is “strongly inhibited”. The 50% inhibitory concentration (IC50) in assay [3] (setting [4]) came to 78 nM. Besides, the “activity in inhibiting cancer cell proliferation compared with reference compound Debio 0123 or ZN-c3” value in assay [3] was “several times to several dozen times higher”.
`Cc1cc(Nc2ncc3c(=O)n4n(c3n2)-c2cccc(n2)[C@](C)(O)CCC=CC4)ccc1OC1CCN(C2COC2)CC1` [Compound 205, (R,Z)-12-hydroxy-12-methyl-2-((3-methyl-4-((1-(oxetan-3-yl)piperidin-4-yl)oxy)phenyl)amino)-7,10,11,12-tetrahydro-5H-13,17-(azeno)pyrimido[4',5':3,4]pyrazolo[1,2-a][1,2]diazacyclotridecin-5-one] returned an IC50 in assay [3] (setting [4]) of 163 nM.
Compound `CN1CCN(Cc2ccc(Nc3ncc4c(=O)n5n(c4n3)-c3cccc(n3)C(C)(O)CCC=CC5)cc2)CC1` (stereo not shown) [Compound 214, (Z)-12-hydroxy-12-methyl-2-((4-((4-methylpiperazin-1-yl)methyl)phenyl)amino)-7,10,11,12-tetrahydro-5H-13,17-(azeno)pyrimido[4',5':3,4]pyrazolo[1,2-a][1,2]diazacyclotridecin-5-one] yielded a half-maximal inhibitory concentration (IC50) in assay [3] (setting [4]) of 144 nM.
With `Cc1cc(Nc2ncc3c(n2)N(C)CN(c2c(Cl)cccc2Cl)C3=O)ccc1C1CCN(C)CC1` [Debio 0123, reference compound], the IC50 in assay [3] (72 h compound incubation) is 1610 nM.
